Results published in ChEMBL document CHEMBL1201862, “PubChem BioAssay data set” (2004).
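96-well plates; 48 h exposure; 5 concentrations. Endpoints by linear interpolation between flanking doses. Not reached: highest tested concentration assigned. GI50 marks 50% less growth.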 The source made the active and inactive calls. Cut-off read from the data, not from the text of the source: active = GI50 up to about 1.1 µM and inactive = higher.

Columns and labels:
Experiment in all cases: inhibition of tumour cell growth, NCI panel, 48 h
MOLT-4 = tested on: MOLT-4
UACC-257 = tested on: UACC-257
NCI-H23 = tested on: NCI-H23
OVCAR-4 = tested on: OVCAR-4
NCI-H226 = tested on: NCI-H226
SK-OV-3 = tested on: SK-OV-3
HOP-62 = tested on: HOP-62
NCI-H522 = tested on: NCI-H522
SK-MEL-5 = tested on: SK-MEL-5
Hs-578T = tested on: Hs-578T
SR = tested on: SR
LOX IMVI = tested on: LOX IMVI
HCT-116 = tested on: HCT-116
SF-295 = tested on: SF-295
SNB-19 = tested on: SNB-19
SNB-75 = tested on: SNB-75
EKVX = tested on: EKVX
A498 = tested on: A498
KM12 = tested on: KM12
HL-60 = tested on: HL-60

Measured: GI50

Cc1oc2c(c1C)S(=O)(=O)C(C#N)=CN2
inactive: MOLT-4 > 100 µM | UACC-257 > 100 µM | NCI-H23 > 100 µM | OVCAR-4 > 100 µM | NCI-H226 > 100 µM | SK-OV-3 > 100 µM | HOP-62 > 100 µM | NCI-H522 > 100 µM | SK-MEL-5 > 100 µM | Hs-578T > 100 µM | SR > 100 µM | LOX IMVI > 100 µM | HCT-116 > 100 µM | SF-295 > 100 µM | SNB-19 > 100 µM | SNB-75 65.3 µM | EKVX > 100 µM | A498 > 100 µM | KM12 > 100 µM

CC(C)C(C(=O)O)N1C(=O)c2ccccc2C1=O (stereo not drawn)
inactive: MOLT-4 > 100 µM | UACC-257 > 100 µM | NCI-H23 > 100 µM | OVCAR-4 > 100 µM | NCI-H226 > 100 µM | SK-OV-3 > 100 µM | HOP-62 > 100 µM | NCI-H522 > 100 µM | SK-MEL-5 > 100 µM | Hs-578T > 100 µM | LOX IMVI > 100 µM | HCT-116 > 100 µM | SF-295 > 100 µM | SNB-19 > 100 µM | HL-60 > 100 µM | SNB-75 > 100 µM | EKVX > 100 µM | A498 > 100 µM | KM12 > 100 µM

COCC[N+](CCNC(=O)c1cccc2c(N)c3cccc(C)c3nc12)(CCOC)Cc1ccc([N+](=O)[O-])cc1
inactive: MOLT-4 3.57 µM | UACC-257 16.9 µM | NCI-H23 29.8 µM | OVCAR-4 43.3 µM | HOP-62 31.8 µM | NCI-H522 5.37 µM | SK-MEL-5 4.53 µM | Hs-578T 10.8 µM | SR 2.99 µM | LOX IMVI 23.1 µM | HCT-116 17.2 µM | SF-295 28.4 µM | SNB-19 40.4 µM | HL-60 12.9 µM | SNB-75 27 µM | EKVX 24.2 µM | KM12 14.5 µM

Clc1nc2c(N3CCCC3)nc(N3CCNCC3)nc2[nH]1
inactive: MOLT-4 20.9 µM | UACC-257 19.3 µM | NCI-H23 16.9 µM | OVCAR-4 18.5 µM | NCI-H226 > 100 µM | SK-OV-3 18.2 µM | HOP-62 20 µM | NCI-H522 17 µM | SK-MEL-5 15.1 µM | Hs-578T > 100 µM | SR 16.9 µM | LOX IMVI 15.8 µM | HCT-116 16 µM | SF-295 18.7 µM | SNB-19 17.6 µM | HL-60 19.5 µM | SNB-75 20.1 µM | EKVX 17.3 µM | KM12 18.1 µM

O=C1CC(=O)NC(NN2C(=O)CSC2c2ccc(Cl)cc2)=N1 (stereo not drawn)
inactive: MOLT-4 28 µM | UACC-257 > 100 µM | NCI-H23 25.5 µM | OVCAR-4 > 100 µM | NCI-H226 > 100 µM | SK-OV-3 > 100 µM | HOP-62 24.9 µM | NCI-H522 > 100 µM | SK-MEL-5 > 100 µM | Hs-578T 25.6 µM | SR 39.2 µM | HCT-116 > 100 µM | SF-295 > 100 µM | SNB-75 > 100 µM | A498 > 100 µM | KM12 32.8 µM

CC(=O)c1sc2c(c1OC(=O)c1ccco1)c(=O)n(-c1ccccc1)c(=S)n2-c1ccccc1
inactive: MOLT-4 19.5 µM | UACC-257 27.5 µM | NCI-H23 26.9 µM | OVCAR-4 28.9 µM | NCI-H226 3.58 µM | SK-OV-3 16 µM | HOP-62 25.1 µM | NCI-H522 19.9 µM | SK-MEL-5 5.81 µM | Hs-578T 2.28 µM | SR 29.4 µM | LOX IMVI 14 µM | HCT-116 18.2 µM | SF-295 5.16 µM | SNB-19 28.2 µM | HL-60 19.8 µM | SNB-75 21.8 µM | EKVX 26.4 µM | KM12 21.1 µM

COc1cccc(/C=C/c2ccnc3ccccc23)c1OC
inactive: MOLT-4 3.89 µM | UACC-257 > 10 µM | NCI-H23 9.66 µM | OVCAR-4 > 10 µM | NCI-H226 > 10 µM | SK-OV-3 > 10 µM | HOP-62 > 10 µM | NCI-H522 > 10 µM | SK-MEL-5 6.89 µM | Hs-578T > 10 µM | LOX IMVI 4.79 µM | HCT-116 > 10 µM | SF-295 > 10 µM | SNB-19 > 10 µM | HL-60 > 10 µM | SNB-75 > 10 µM | EKVX 9.66 µM | A498 > 10 µM | KM12 > 10 µM
